# In patent US11826414B2, “Measurement of afucosylated IgG Fc glycans and related vaccination methods” (priority 2017, dated 2023):
# Read-outs that look alike come from different tables or passages of the source.
# Experiments:
# [1] = test system: H3N2 influenza virus (IAV); assay type: cell-based; details: DC-SIGN U937 cells, no antibodies present
# [2] = test system: H1N1 influenza virus (IAV); assay type: cell-based; details: DC-SIGN U937 cells, no antibodies present
# [3] = test system: dengue 2; assay type: cell-based, dengue virus; details: FcγRIIa+FcγRIIIa− U937 cells treated with PMA/ionomycin
# [4] = test system: FcγRIIa^+FcγRIIIa^+ monocytes; details: at concentrations tested
# [5] = test system: Zika virus (ZIKV); assay type: cell-based; details: DC-SIGN U937 cells, no antibodies present
# [6] = test system: dengue 2; assay type: cell-based, dengue virus; details: for Inhibition of dengue 2 infection (ADE): FcγRIIa+FcγRIIIa+ monocytes, pre-incubation with inhibitor
Compound,Inhibition of infection [1],Inhibition of infection [2],Inhibition of enhanced infection after PMA/ionomycin treatment [3],Cell viability [4],Inhibition of infection [5],"Inhibition of dengue infection ([6]; 5 μM peptide, all MOIs tested) [%]",Inhibition of dengue 2 infection (ADE) [6],"Inhibition of dengue 2 replication, time of treatment ([6]; treatment of cells up to 2 hours following infection)",Inhibition of dengue 2 infection (ADE) ([6]; listed as PRT)
11R-VIVIT,did not inhibit,did not inhibit,could be inhibited,unaffected,did not inhibit,> 70,inhibited dengue 2 infection in a concentration-dependent manner,inhibited dengue 2 replication,–
Cc1cccc(Nc2nc(N[C@@H]3CCCC[C@@H]3N)ncc2C(N)=O)c1 [PRT318],–,–,–,–,–,–,inhibited in FcγRIIa^+FcγRIIIa^+ monocytes in a concentration-dependent manner,–,inhibited dengue 2 infection in FcγRIIa+FcγRIIIa+ monocytes in a concentration-dependent manner
